We go through one compound from patent US6268478A, “Intracellular vitamin D binding protein” (Cedars-Sinai Medical Center, priority 1997, dated 2001).

Assay [1] deals with T1, IDBP (Saguinus oedipus, UniProt Q9N1U2). Kind of assay: 25-OHD3 binding activity of cells transiently transfected with plasmid expressing the IDBP coding region. The arrangement: species or system Callithrix jacchus (common marmoset). An excerpt:
The coding region of IDBP shown in FIG. 3 was cloned into pcDNA3.1 (Invitrogen). […] Control plasmid was the pcDNA3.1 vector without cloned insert.

The target in assay [2] is T1, IDBP. Kind of assay: Competitive displacement of [3H]25-OHD3 from IDBP in unfractionated 100,000×g supernatant extracts of B95-8 cells (competitive protein binding assay, dextran-coated charcoal). Further details: post-nuclear 100,000xg supernatant of B95-8 marmoset lymphoblasts and partly purified column fractions; species or system Callithrix jacchus (common marmoset). The text has this: Culture and Extraction of B95-8 Cells. The B-lymphoblastoid cell line B95-8 was obtained from the American Type Culture Collection (ATCC, Manassas, Va.). This cell line was established by EBV transformation of blood leukocytes from the vitamin D-resistant new world primate, Callithrix jacchus (common marmoset). The cell line was maintained in RPMI-1640 medium (Irvine Scientific, Irvine, Calif.) routinely supplemented with 10% fetal calf serum (FCS; Gemini BioProducts, Calabasas, Calif.), 100 units/ml penicillin, 100 μg/ml streptomycin, 2 mM L-glutamine (both from Gibco-BRL, Grand Island, N.Y.) in an atmosphere of 95% air-5% CO2.
Confluent cultures were harvested by agitation to dislodge clumps of lymphoblasts that were weakly adherent to the plastic flask. Harvested cells were pelleted and washed twice in ice cold phosphate-buffered saline (PBS; 20 mM Na2 HPO4 and 150 mM NaCl, pH 7.2). The pelleted cells were then resuspended in ETD buffer (1 mM EDTA, 10 mM Tris-HCl, 5 mM dithiothreitol, pH 7.4) containing 1 mM phenylmethylsulfonylflouride and homogenized by Polytron on ice in five 15-second bursts. Nuclei with associated nuclear steroid receptor proteins, were pelleted at 4,000×g for 30 minutes at 4° C. The post-nuclear supernatant of this spin was then subjected to high-speed centrifugation at 100,000×g for 1 hour at 4° C. The resulting "100,000×g supernatant" was either aliquoted and stored at […] for further study, used in competitive ligand binding analyses, or subjected to further purification as described below in Example II.
Ligand Binding Analyses. The ability of the unfractionated 100,000×g supernatant extracts of B95-8 cells and individual column […] of increasing concentrations of radioinert compounds (see Table I) was performed by competitive protein binding assay as previously described in Gacad et al. Bone Min. Res. 8:27-35 (1993).
[…] […] […] […] The binding assay conditions were the same as those stated above except that specific binding was determined in ETD-0.3 M Na2 HPO4 buffer (pH 6.8).
Background: Displacement assays read how much labelled ligand stays bound in the presence of the test substance.

The subject of assay [3] is ATP binding domain of IDBP. Put plainly: 25-OHD3 binding activity of cells transfected with construct encoding the IDBP ATP binding domain. Further details: species or system Callithrix jacchus (common marmoset). To be noted: COS-7 and OMK gibbon cells transfected with ATP binding domain construct. The text has this: This experiment was repeated with expression plasmids which encode different fragments of IDBP. The coding region of the cDNA contains a convenient Eco RI restriction site which divides the region encoding the deduced ATP binding from the deduced peptide binding domain and variable domain.

Assay [4] relates to IDBP(s). Kind of assay: Specific binding of [3H]25-OHD3 and [3H]17β-estradiol in post-hydroxyapatite peak I and peak II fractions of B95-8 extract. The arrangement: species or system Callithrix jacchus (common marmoset). To be noted: both peak I and peak II from hydroxyapatite chromatography; tracer ± 100 nM radioinert ligand. As to the method: (§1) Briefly, unfractionated or post-FPLC fractions were incubated in ETD-0.5 M NaCl overnight at 4° C. with 4 nM [3H]25-OHD3 in the presence or absence of 1-100 nM unlabeled competitive ligand. Protein-bound [^3 H]25-OHD3 was separated from unbound sterol by incubation with dextran-coated charcoal. Specifically-bound 25-OHD3 was determined by subtracting the mean of duplicate determinations of binding in the presence of 100 nM radioinert competitive ligand from the mean of determinations of binding in the absence of added competitive ligand. Specific binding of 17β-[^3 H]estradiol as well as [^3 H]25-OHD3 to IDBP(s) was also determined in individual fractions eluting from hydroxyapatite chromatography. The binding assay conditions were the same as those stated above except that specific binding was determined in ETD-0.3 M Na2 HPO4 buffer (pH 6.8).
On the basis of protein recovery, enrichment of bioactivity, ease of use, and resin available for FPLC and/or HPLC applications, three chromatographic supports, one each from the three different kinds of packing materials evaluated, were selected for serial chromatographic purification of IDBP(s): BPS-DE cellulose for anion exchange chromatography, phenyl sepharose (mid sub) for hydrophobic interaction chromatography, and HTP-hydroxyapatite for separation of proteins by their surface charge. […]

Assay [5] addresses T2, human heat shock protein-70 (hsp70) (Homo sapiens, UniProt P0DMV8).
T2 construct: purchased StressGen, Victoria, B.C., Canada
Kind of assay: Competitive ligand binding of [3H]25-hydroxyvitamin D3 to recombinant inducibly-expressed hsp70. The conditions noted are these: inducibly expressed hsp70; read-out: concentration of radioinert ligand required to achieve maximal displacement of [3H]25-hydroxyvitamin D3. As to the method:
Ligand Binding Analyses. The ability of the unfractionated 100,000×g supernatant extracts of B95-8 cells and individual column fractions of chromatographically-purified material to bind [^3 H]25-OHD3 in the presence or absence of increasing concentrations of radioinert compounds (see Table I) was performed by competitive protein binding assay as previously described in Gacad et al. Bone Min. Res. 8:27-35 (1993).
as §1
Inducibly-expressed, recombinant human heat shock protein-70 (hsp70) was purchased from StressGen, Victoria, B.C., Canada. […]

T1 sequence (Q9N1U2 whole entry): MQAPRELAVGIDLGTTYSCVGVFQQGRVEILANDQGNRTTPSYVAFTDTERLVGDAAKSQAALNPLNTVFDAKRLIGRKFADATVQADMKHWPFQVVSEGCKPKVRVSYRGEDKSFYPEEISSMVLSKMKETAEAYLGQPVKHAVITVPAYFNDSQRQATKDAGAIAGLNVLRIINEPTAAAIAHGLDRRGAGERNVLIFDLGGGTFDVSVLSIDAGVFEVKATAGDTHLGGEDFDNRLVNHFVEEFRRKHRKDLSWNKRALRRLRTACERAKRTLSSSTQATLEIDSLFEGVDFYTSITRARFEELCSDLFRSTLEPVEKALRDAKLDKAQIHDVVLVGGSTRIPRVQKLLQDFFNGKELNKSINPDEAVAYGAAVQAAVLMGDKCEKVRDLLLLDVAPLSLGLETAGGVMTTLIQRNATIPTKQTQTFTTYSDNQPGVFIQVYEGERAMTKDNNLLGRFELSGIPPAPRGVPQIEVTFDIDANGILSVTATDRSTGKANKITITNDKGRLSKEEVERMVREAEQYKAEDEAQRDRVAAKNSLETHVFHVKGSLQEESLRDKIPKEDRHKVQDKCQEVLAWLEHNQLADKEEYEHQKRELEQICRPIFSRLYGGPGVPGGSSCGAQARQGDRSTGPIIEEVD
T2 sequence (P0DMV8 whole entry): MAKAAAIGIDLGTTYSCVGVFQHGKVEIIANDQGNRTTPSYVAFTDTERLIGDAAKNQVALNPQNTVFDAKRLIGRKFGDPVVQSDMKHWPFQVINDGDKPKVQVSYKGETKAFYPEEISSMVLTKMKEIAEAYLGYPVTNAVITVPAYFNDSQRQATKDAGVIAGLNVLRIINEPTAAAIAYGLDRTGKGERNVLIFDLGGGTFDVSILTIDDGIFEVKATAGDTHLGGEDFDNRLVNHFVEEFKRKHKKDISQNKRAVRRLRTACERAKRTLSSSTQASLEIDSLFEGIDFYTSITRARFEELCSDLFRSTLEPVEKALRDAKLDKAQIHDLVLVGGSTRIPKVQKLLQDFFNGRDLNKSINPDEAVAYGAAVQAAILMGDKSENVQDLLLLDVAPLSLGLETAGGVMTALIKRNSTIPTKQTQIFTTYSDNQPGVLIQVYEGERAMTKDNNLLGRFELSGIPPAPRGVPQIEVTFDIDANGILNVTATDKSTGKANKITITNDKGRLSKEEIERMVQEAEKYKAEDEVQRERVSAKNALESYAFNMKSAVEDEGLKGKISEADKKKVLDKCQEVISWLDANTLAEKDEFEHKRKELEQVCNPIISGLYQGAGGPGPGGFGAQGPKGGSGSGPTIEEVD

As for `C=C1CC[C@H](O)C/C1=C/C=C1\CCC[C@]2(C)[C@@H]([C@H](C)CCCC(C)(C)O)CC[C@@H]12` [25-OHD3, 25-hydroxy vitamin D3], the 25-OHD3 binding activity result is “approximately 0.8 fmol/μg protein” in assay [1] (Cos-7 cells transfected with IDBP coding region in pcDNA3.1), “approximately 1.0 fmol/μg protein” in assay [1] (OMK gibbon cells transfected with IDBP coding region in pcDNA3.1) and “exhibited enhanced 25-OHD3 binding activity” in assay [3]. Besides, in assay [2] (100 nM competitor, 2 nM [3H]25-OHD3), the “ability to competitively displace [3H]25-OHD3 binding (FIG. 1A)” value is recorded as “roughly equivalent in their ability to competitively inhibit”. Further, the IC (maximal displacement) in assay [2] (IDBP, read-out: concentration of radioinert ligand required to achieve maximal displacement of [3H]25-hydroxyvitamin D3) fell in the range of 0.05 to 0.1 µM; in assay [5], 0.05 to 0.1 µM. Further, in assay [4], the “specific binding activity for 25-OHD3 relative to that of 17β-estradiol” value is given as “approximately 2 fold”.
